# Test results taken from patent US9657348B2, “Method of screening compounds for the treatment of diabetes” (ATROGI AB, priority 2013, dated 2017).
# Entries after “also recorded” stand apart in the source; their conditions may differ. Starred links: 1 amine or outer side, 2 acyl side, 3 side chain; linkers in the order of their positions; H or OH if unused. Positions of bridges follow the written chain, without caps; N, C: chain ends. Non-standard residues stand in square brackets, D forms with d. Residues, ends and D or L forms follow the SMILES beside them. Chains are numbered I, II in the order given. Actinocin(9to1) = Cc1c2oc3c(C)ccc(C(=O)[*:1])c3nc-2c(C(=O)[*:2])c(N)c1=O; NMeV = CN[C@H](C(=O)O)C(C)C; Sar = CNCC(=O)O
# Experiments:
# soleus muscle = assay: 3-O-methylglucose transport (glucose uptake) in isolated soleus muscle; format: cell-based; details: soleus muscle from rat; FIG. 1A
# Description: (§1) Soleus muscles were dissected from Sprague-Dawley rats and suspended in Krebs-Henseleit bicarbonate (KHB) buffer (118.5 mM NaCl, 4.7 mM KCl, 1.2 mM KH2PO4, 25 mM NaHCO3, 2.5 mM CaCl2, 1.2 mM MgSO4, 5 mM HEPES) in organ baths containing 30 ml KHB containing 5 mM glucose and 15 mM mannitol, bubbled with 95% O2/5% CO2 (pH 7.4) and maintained at 37° C. […] Muscles were rinsed with KHB (20 mM mannitol) for 10 min, then incubated in KHB (8 mM 3-O-methylglucose and 12 mM mannitol with 438 μCi/mmol 3-O-methyl[3H]glucose (80.2 Ci/mmol; PerkinElmer) and 42 μCi/mmol [^14C] mannitol (58.8 mCi/mmol; PerkinElmer, USA)) for 12 min. Muscles were then rinsed with PBS and frozen in liquid nitrogen, weighed and dissolved in 1 mL of 0.5M NaOH at 60° C. ^3H and ^14C were measured by liquid scintillation counting. Total muscle 3-O-methylglucose and extracellular space were measured as described previously (Zierath 1995). Intracellular 3-O-methylglucose accumulation was calculated by: (Total muscle 3-O-methylglucose)−(extracellular 3-O-methylglucose)=intracellular 3-O-methylglucose. This was then expressed as a rate of 3-O-methylglucose transport per mL of intracellular water per hour. Glucose uptake was measured in L6 skeletal muscle cells and in human skeletal muscle cells (SKMC) grown in 12-well plates using ^3H-2-deoxyglucose as previously described (Nevzorova et al. 2002) with minor modifications. […]
# GLUT4 = GLUT4 translocation to plasma membrane by immunocytochemistry in L6 cells; format: cell-based, rat; details: non-permeabilized L6 myoblasts; 1 μM, 2 h
# [1] = system: human skeletal muscle cells (SKMC); assay: 3H-2-deoxyglucose uptake in human skeletal muscle cells; format: cell-based; details: FIG. 1C
# Description: as §1
# cAMP = cAMP content over time in L6 myotubes; format: cell-based, rat; details: for maximum difference in cAMP versus cells not brought into contact (Δ1): L6 myotubes
# Description: Further, to determine whether contacting BRL37344 causes a response of a classical secondary messenger in cells with which it is brought into contact, the concentration of cAMP was measured during a period of time. As a reference, cAMP in cells not brought into contact was measured. In FIG. 9A the difference Δ1 for BRL37344 is plotted, and the maximum difference is about 8 pmol. […] The calculated value of r″ therefore is 8/45=0.18.
# L6 skeletal muscle cells [2] = assay: 3H-2-deoxyglucose uptake in L6 myotubes, with or without inhibitors or GRK2 siRNA; format: cell-based, rat; details: for glucose uptake / effect of GRK2 knock-down with siRNA on glucose uptake stimulated by the substance / basal glucose uptake in presence of inhibitor / insulin- and GPCR-stimulated glucose uptake in presence of inhibitor: L6 myotubes; for glucose uptake: stimulation with drug; for effect of GRK2 knock-down with siRNA on glucose uptake stimulated by the substance: FIG. 7, FIG. 9B; for basal glucose uptake in presence of inhibitor / insulin- and GPCR-stimulated glucose uptake in presence of inhibitor: inhibitor pretreatment 30 min; for insulin- and GPCR-stimulated glucose uptake in presence of inhibitor: then insulin or GPCR stimulation
# Description: Cells were grown as in Example 1. Cells were pretreated with inhibitors for 30 min and then exposed to GPCR stimulation.
# GRK2 siRNA constructs (Sigma Aldrich) as well as control sequence was transfected into L6 mytoubes by electroporation. Differentiated L6 cells were detached by washing in PBS followed by 5 minutes of incubation in trypsin/EDTA (0.1% trypsin w/v, 0.02% EDTA w/v). The detached cells were transferred to Eppendorf tubes and centrifugation at 1000×g for 3 minutes was performed before supernatant was removed and the cells were resuspended in 20 μl/well of SE Cell Line Nucleofector® (Lonza) and 100 nM siRNA. Cells were transferred to a 16-well microcuvette plate (Lonza) and were electroporated in a 4D-Nucleofector® (Lonza). 80 μl of pre-warmed RPMI1640 medium were added to the each microcuvette well for 5 min before the cells were transferred to the Eppendorf tubes containing culture media. Cells were serum starved over night and glucose uptake measured 24 hours after transfection.
# Glucose uptake was detected by ^3H-2-dexoy-glucose as previously described (Nevzorova 2002), with minor modifications. Differentiated L6-myotubes were serum-starved over night in media containing 0.5% fatty-acid free BSA and stimulated with agonists for totally 2 h, unless otherwise stated. Cells were exposed to 50 nM ^3H-2-dexoy-glucose in glucose free media for 6-10 minutes before the experiment was ended by washing the cells in ice-cold PBS or glucose free media. Cells were lysed in 0.2 M NaOH for 1 h in 60° C., mixed with scintillation buffer (Emulsifier Safe, Perkin Elmer) and radioactivity detected in a β-counter (Tri-Carb 2800TR, Perkin Elmer).
# [3] = system: Human prostate carcinoma (22rv1) cells; assay: Glucose uptake in 22rv1 cells with or without GRK2 siRNA; format: cell-based; details: FIG. 8
# Description: Human prostate carcinoma (22rv1) cells were grown for 7 days in RPMI-1640 medium. […] At day 7, 22rv1 cells were treated with siRNA. siRNA constructs GRK2 (Sigma Aldrich) as well as control sequence were transfected into 22rv1 cells by lipofectamine (Life Technologies Corp.) according to the manufacturer's protocol. Cells were serum starved over night and glucose uptake was measured 24 hours after transfection. Cells were stimulated with drugs for totally 2 h, unless otherwise stated.
# L6 skeletal muscle cells [4] = assay: Cell viability of L6 cells under transcription/translation inhibitor
compound,measurement,setting,value
"CC(C)NCC(O)c1ccc(O)c(O)c1 (racemic) [isoproterenol, (RS)-4-[1-hydroxy-2-(isopropylamino)ethyl]benzene-1,2-diol]",glucose uptake,soleus muscle,leads to glucose uptake
same,GLUT4 recruitment to the plasma membrane,GLUT4,GLUT4 recruitment to the plasma membrane to the same extent
same,glucose uptake,[1],leads to glucose uptake
same,maximum difference in cAMP versus cells not brought into contact (Δ1),cAMP; FIG. 9A,about 45 pmol
"C[C@H](Cc1ccc(OCC(=O)O)cc1)NC[C@H](O)c1cccc(Cl)c1 (relative stereo) [BRL37344, (±)-(R*,R*)-[4-[2-[[2-(3-chlorophenyl)-2-hydroxy-ethyl]amino]propyl]phenoxy]acetic acid]",glucose uptake in % of the glucose uptake of the same cells brought into contact with vehicle only,"L6 skeletal muscle cells [2]; (untransfected) cells expressing GRK2, FIG. 9B",175%
same,glucose uptake,L6 skeletal muscle cells [2],stimulate glucose uptake
same,effect of GRK2 knock-down with siRNA on glucose uptake stimulated by the substance,L6 skeletal muscle cells [2],significantly inhibited
same,glucose uptake in % of vehicle,"L6 skeletal muscle cells [2]; transfected (GRK2 siRNA) cells not expressing GRK, FIG. 9B",125%
same,ratio r″ (cAMP response of compound / cAMP response of isoproterenol),cAMP; 8/45,0.18
same,maximum difference in cAMP versus cells not brought into contact (Δ1),cAMP; FIG. 9A,about 8 pmol
same,contents of cAMP over basal,"cAMP; skeletal muscle cells (L6 myotubes), all time points, FIG. 9A",did not significantly increase
CS(=O)(=O)Nc1c(O)ccc2c1CCCC2C1=NCCN1 (centres unmarked) [A61603],effect of GRK2 down-regulation with siRNA on glucose uptake stimulated by the substance,[3],inhibited
"O=C(CCc1ccc(O)cc1)c1c(O)cc(O)cc1O [Phloretin, phloretin]",basal glucose uptake in presence of inhibitor,L6 skeletal muscle cells [2],blocked basal glucose uptake
same,insulin- and GPCR-stimulated glucose uptake in presence of inhibitor,L6 skeletal muscle cells [2],significantly reduced
"Cc1c2oc3c(C)ccc(C(=O)N[C@@H]4C(=O)N[C@H](C(C)C)C(=O)N5CCC[C@H]5C(=O)N(C)CC(=O)N(C)[C@@H](C(C)C)C(=O)O[C@@H]4C)c3nc-2c(C(=O)N[C@@H]2C(=O)N[C@H](C(C)C)C(=O)N3CCC[C@H]3C(=O)N(C)CC(=O)N(C)[C@@H](C(C)C)C(=O)O[C@@H]2C)c(N)c1=O [actinomycin, Actinomycin D] (I: T[dV]P[Sar][NMeV] / II: T[dV]P[Sar][NMeV]; ester I:1-I:C, II:1-II:C; linker I:N-II:N via Actinocin(9to1))",cell viability,L6 skeletal muscle cells [4],did not significantly affect
same,basal glucose uptake in presence of inhibitor,L6 skeletal muscle cells [2],did not significantly affect
same,insulin- and GPCR-stimulated glucose uptake in presence of inhibitor,L6 skeletal muscle cells [2],did not significantly affect
C[C@@H]1C[C@@H]([C@H](O)CC2CC(=O)NC(=O)C2)C(=O)[C@@H](C)C1 [cyclohexamide],basal glucose uptake in presence of inhibitor,L6 skeletal muscle cells [2],did not affect
same,insulin- and GPCR-stimulated glucose uptake in presence of inhibitor,L6 skeletal muscle cells [2],did not affect
C=C1[C@@H](C)[C@H]2[C@H](Cc3ccccc3)NC(=O)[C@]23OC(=O)/C=C/[C@H](O)CCC[C@@H](C)C/C=C/[C@H]3[C@@H]1O [cytochalasin B],basal glucose uptake in presence of inhibitor,L6 skeletal muscle cells [2],reduced basal glucose uptake
same,insulin- and GPCR-stimulated glucose uptake in presence of inhibitor,L6 skeletal muscle cells [2],reduced
CC(C)(C)NC(=O)[C@@H]1CN(Cc2cccnc2)CCN1C[C@@H](O)C[C@@H](Cc1ccccc1)C(=O)N[C@H]1c2ccccc2C[C@H]1O [indinavir],basal glucose uptake in presence of inhibitor,L6 skeletal muscle cells [2],blocked basal glucose uptake
same,insulin- and GPCR-stimulated glucose uptake in presence of inhibitor,L6 skeletal muscle cells [2],significantly reduced
"NC[C@H](O)c1ccc(O)c(O)c1 [norepinephrine (NA), norepinephrine]",effect of GRK2 down-regulation with siRNA on glucose uptake stimulated by the substance,[3],inhibited
Cc1cc(C(C)(C)C)c(O)c(C)c1CC1=NCCN1 [oxymetazoline],effect of GRK2 down-regulation with siRNA on glucose uptake stimulated by the substance,[3],inhibited
insulin,GLUT4 recruitment to the plasma membrane,GLUT4,GLUT4 recruitment to the plasma membrane to the same extent
same,effect of GRK2 down-regulation with siRNA on glucose uptake stimulated by the substance,[3],does not inhibit
same,glucose uptake,L6 skeletal muscle cells [2],increased glucose uptake
same,effect of GRK2 knock-down with siRNA on glucose uptake stimulated by the substance,L6 skeletal muscle cells [2],could not be blocked; also recorded: does not inhibit
